From article PMC5913986, “Repurposing and Reformulation of the Antiparasitic Agent Flubendazole for Treatment of Cryptococcal Meningoencephalitis, a Neglected Fungal Disease” (Antimicrobial Agents and Chemotherapy, 2018)
Converted amounts (≈) assume the structure as drawn. Where two headings read alike, the source gives them in different places.

Experiments:
[1] = system: Cryptococcus neoformans; format: in vivo, mice
[2] = In vitro DMPK: logD7.4; format: physicochemical; settings: pH 7.4; commercially available powder
[3] = dogs, 20, 40, 100 mg/kg/day, 2 weeks; ref Janssen GLP toxicology studies; cited from earlier work
[4] = design: species or system mice; settings: mouse, in vivo
Method: The pharmacokinetics of oral flubendazole was determined with two independently conducted experiments. Treatment was initiated 24 h postinoculation. Doses of 2 to 12 mg/kg were used. Only the first dosing interval was studied. A serial-sacrifice design was used with groups of 3 mice that were sacrificed at 0.5, 1, 2, 8, and 24 h […].
(§1) The pharmacokinetic and pharmacodynamic data sets from mice were modeled using the program Pmetrics ([33]) and the following five inhomogeneous differential equations: (1) XP(1)=B(1)−Ka×X(1) (2) XP(2)=Ka×X(1)−(SCL/V)×X(2)−Kcp×X(2)+Kpc×X(3)−Kcb×X(2)+Kbc×X(4) (3) XP(3)=Kcp×X(2)−Kpc×X(3) (4) XP(4)=[…] (5) XP(5) = Kgmax [1−((X(4)/V)^Hg/C50g^Hg+(X(4)/V)^Hg)] × [1−(X(5)/POPMAX)]×X(5)
(§2) The system parameters and their units are as follows: B(1) (mg) represents the bolus input of flubendazole into the gut. Ka (h^−1) is the first-order rate constant collecting the gut and the central compartment, SCL (liters/h) is the clearance of flubendazole from the central compartment, V (liters) is the volume of the central compartment, and Kcp (h^−1) and Kpc (h^−1) are the first-order intercompartmental rate constants. Kgmax (log10 CFU/g/h) is the maximal rate of cryptococcal growth. POPMAX (CFU/g) is the maximum theoretical fungal density. C50g (mg/liter) is the concentration of flubendazole that induces half-maximal effects on growth. Hg is the slope function for growth. The initial condition (CFU/g; not shown in the equations) is the fungal density immediately following inoculation and is estimated along with other parameters.
(§3) Equations 1, 2, 3, and 4 are pharmacokinetic equations that describe the movement of drug from the gut, throughout the body, and into the brain. Equation 1 describes the movement of drug from the gut. Equation 2 describes the rate of change of flubendazole in the central compartment (plasma) with first-order clearance and movement of drug to and from both a peripheral (unmeasured) compartment and the cerebrum. Equations 3 and 4 describe the rate of change of drug in the peripheral and cerebral compartments, respectively. The pharmacodynamics of flubendazole against Cryptococcus neoformans is described by equation 5, which has terms that describe the capacity-limited growth of Cryptococcus and flubendazole-induced suppression of growth. The antifungal activity in the cerebrum is primarily related to concentrations in the cerebrum.

[5] = In vitro DMPK: aqueous solubility; format: physicochemical
[6] = system: C. neoformans isolates; test: MIC determination, CLSI methodology; format: cell-based, Cryptococcus neoformans; settings: 50 strains
Method: (§4) The initial in vitro susceptibility testing was performed with H99 (ATCC 208821). An additional 49 clinical isolates were obtained from the National Centre for Microbiology Instituto de Salud Carlos III, Madrid, Spain (courtesy of Ana Alastruey-Izquierdo and Manual Cuenca-Estrella). These isolates were identified to the species level using standard microbiological techniques.
(§5) The MIC of flubendazole against H99 (ATCC 208821) and the 49 isolates was estimated using methodology of the European Committee on Antimicrobial Susceptibility Testing (EUCAST [25]) and the Clinical and Laboratory Standards Institute (CLSI [26]). The endpoint for MIC determination using was 50% for both the EUCAST and CLSI methods. MICs were performed in triplicate.

[7] = system: C. neoformans isolates; test: MIC determination, EUCAST methodology; format: cell-based, Cryptococcus neoformans; settings: for MIC: Cryptococcus neoformans
Method: as §4, §5

[8] = rats, 5, 15, 30 mg/kg/day (male), 2.5, 5, 10 mg/kg/day (female), 2 weeks; ref Janssen GLP toxicology studies; cited from earlier work
[9] = system: C. neoformans var. grubii (ATCC 208821; H99); test: Hollow-fiber infection model of cryptococcal meningoencephalitis; format: cell-based, Cryptococcus neoformans; settings: q24h for 8 days, intended peaks 1.25, 2.5, 10 mg/liter
Method: A new hollow-fiber infection model was developed to investigate the in vitro pharmacodynamics of flubendazole against C. neoformans. The same cartridges (FiberCell Systems, Frederick, MD) and configuration as previously described for bacterial pathogens was used (see, for example, reference). The extracapillary space of each cartridge was inoculated with 40 ml of a suspension containing 6 log10 CFU/ml of C. neoformans var. grubii (ATCC 208821; H99). Yeast extract-peptone-dextrose (YPD) medium was pumped from the central compartment through the cartridge and back again using a peristaltic pump (205 U; Watson-Marlow, United Kingdom). The hollow-fiber infection model was incubated at 37°C in ambient air. The time course of fungal growth was determined by removing 1 ml from the extracapillary space of the cartridge and plating serial 10-fold dilutions to YPD agar.
The relationship between flubendazole exposure and its effect was explored using a range of drug exposures. […] Various doses of flubendazole were administered q24h by infusion over 1 h for 8 days to the central compartment using a programmable syringe driver (Aladdin pump; World Precision Instruments, United Kingdom). There was a 24-h delay in the initiation of flubendazole therapy postinoculation. […]

[10] = system: Cryptococcus neoformans; test: Pharmacodynamics of oral flubendazole nanoformulation in murine model of cryptococcal meningitis; format: in vivo; settings: mice
Method: A previously described ([8]) and well-characterized murine model of cryptococcal meningitis was used to investigate the pharmacodynamics of flubendazole. All laboratory animal experiments were performed under UK Home Office project license PPL40/3630 and were approved by the University of Liverpool's Animal Welfare Ethics Review Board. Male CD1 mice were purchased from Charles River and were 20 to 30 g at the time of experimentation. An inoculum of 3 × 10^8 CFU in 0.25 ml was used for each mouse. Groups of mice (n = 3) were serially sacrificed throughout the experimental period. The brains were removed and homogenized. Serial 10-fold dilutions were plated to YPD agar supplemented with chloramphenicol to enumerate the total fungal burden. Plates were incubated in air at 30°C for at least 48 h.
The pharmacodynamics of oral flubendazole was estimated over the course of three separate independently conducted experiments. Groups of 3 mice were sacrificed at 2, 24, 48, 96, 144, and 168 h postinoculation. Dose finding studies were performed using flubendazole at 2, 4, 6, 8, and 12 mg/kg q24h orally. The upper dosage was limited by the volume restrictions for mice imposed by Home Office project license PPL40/3630. A fourth experiment compared 12 mg/kg q24 with 6 mg/kg q12h to examine whether more fractionated regimens provided any additional antifungal effect.
as §1, §2, §3

[11] = In vitro DMPK: rat hepatic intrinsic clearance; format: in vitro ADME; settings: hepatocytes
[12] = system: Cryptococcus neoformans; test: Pharmacodynamics in rabbit model of cryptococcal meningitis; format: in vivo; settings: rabbits; for antifungal effect: CSF
Method: A previously described and well-characterized rabbit model of cryptococcal meningoencephalitis ([32]) was used to further investigate the pharmacodynamics of flubendazole. Male New Zealand White rabbits were purchased from Harlan. Rabbits weighed 2.5 to 3 kg at the time of experimentation. Rabbits were immunosuppressed intramuscularly with hydrocortisone at 10 mg/kg on day −1 relative to infection and then daily throughout the experiment.
Cryptococcal meningoencephalitis was induced with the intracisternal inoculation of 0.25 ml of a suspension containing 3.8 × 10^8 CFU/ml under general anesthesia (induced with medetomidine and ketamine). This inoculum results in progressive infection that manifests as an increase in fungal burden in the CSF and reproducible encephalitis. There was minimal clinical disease with no demonstrable neurological signs in the experimental period. Mortality always occurred in the context of cisternal tapping and repeated anesthesia rather than from progressive infection.
We directly linked plasma concentrations with the antifungal effect.

[13] = design: method as in PMID 26443851; settings: cited from earlier work
[14] = target: T1, porcine tubulin (Sus scrofa, UniProt P02554); test: Porcine tubulin polymerization assay; format: biochemical; settings: 37°C, 1 h, read-out: IC50 against porcine tubulin
T1 construct: purified porcine brain tubulin; purchased Cytoskeleton, Inc., Denver, CO BK011P; host or cells: porcine brain (tissue-purified)
Method: Porcine tubulin is generally used as a surrogate for human tubulin because of its high degree of homology (95%) ([27]). […] The commercially available porcine tubulin assay (BK011P; Cytoskeleton, Inc., Denver, CO) quantifies the time-dependent polymerization of tubulin to microtubules and thus the ability of tubulin inhibitors to disrupt this process.
The porcine tubulin assay was performed according to the manufacturer's instructions. Briefly, the 96-well assay plate was prewarmed to 37°C prior to use. Five microliters of test compound(s) and controls at 0, 1.25, 2.5, 5, and 10 μM were aliquoted into each well and prewarmed for 1 min. […] Polymerization was initiated by mixing 45 μl of reaction buffer that contained 2 mg/ml of purified porcine brain tubulin, 10 μM fluorescent reporter, PEM buffer (80 mM PIPES, 0.5 mM EGTA, 2 mM MgCl2 [pH 6.9]), 1 mM GTP, and 20.3% glycerol. Tubulin polymerization was followed by an increase in fluorescence intensity due to the incorporation of a fluorescence reporter into microtubules as polymerization occurred. The change in fluorescence was measured using an excitation and emission wavelength of 360 nm and 450 nm, respectively, every 1 min for 1 h at 37°C using a Varioskan multimode plate reader (Thermo scientific Inc.). All data points were acquired in triplicate, and IC50s were calculated with GraphPad Prism. […]

[15] = Pharmacokinetics of oral flubendazole in rabbits
Method: PK-PD relationships in the rabbit were estimated in two independently conducted experiments including 6 rabbits in each. Rabbits were placed under general anesthesia for removal of CSF via intracisternal tapping at 48 h intervals. […] Treatment was initiated 48 h postinoculation and continued for 10 days, after which time all rabbits were sacrificed. Thus, the total duration of the experiment was 288 h.
Flubendazole concentrations in all matrices were measured using validated ultrahigh-performance liquid chromatography-tandem mass spectrometry (LC-MS/MS) implemented on an Agilent 6420 triple quad mass spectrometer and an Agilent 1290 infinity LC system (Agilent Technologies UK Ltd., Cheshire, UK). Flubendazole was extracted by protein precipitation by adding 300 μl of a 50:50 mix of acetonitrile and methanol that contained the internal standard [6,7-dimethyl-2,3-di(2-pyridyl) quinoxaline; Sigma-Aldrich, Dorset, UK] at a final concentration of 1 mg/liter to 30 μl of each matrix.

[16] = system: filarial diseases such as onchocerciasis and lymphatic filariasis; design: method as in PMID 21609260; settings: given subcutaneously; cited from earlier work
[17] = In vitro DMPK: human microsomal intrinsic clearance; format: in vitro ADME; settings: human microsomes
[18] = In vitro DMPK: plasma protein binding; format: in vitro ADME
[19] = target: T1, porcine tubulin; design: method as in doi:10.2533/chimia.2007.368; settings: known tubulin inhibitors; cited from earlier work

T1 sequence (P02554 whole entry): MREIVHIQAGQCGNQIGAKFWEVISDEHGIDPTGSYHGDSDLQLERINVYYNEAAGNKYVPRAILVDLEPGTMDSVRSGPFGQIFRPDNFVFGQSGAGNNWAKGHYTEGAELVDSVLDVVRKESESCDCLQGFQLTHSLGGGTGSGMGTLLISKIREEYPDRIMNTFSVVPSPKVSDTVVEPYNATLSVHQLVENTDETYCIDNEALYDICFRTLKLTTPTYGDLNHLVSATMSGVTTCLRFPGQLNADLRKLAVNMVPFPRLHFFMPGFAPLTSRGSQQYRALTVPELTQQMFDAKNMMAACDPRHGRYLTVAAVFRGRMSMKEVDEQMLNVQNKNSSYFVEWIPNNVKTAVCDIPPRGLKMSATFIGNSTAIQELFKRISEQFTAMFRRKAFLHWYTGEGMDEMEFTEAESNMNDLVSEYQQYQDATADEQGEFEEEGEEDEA
T1 sequence (P02550 whole entry partner): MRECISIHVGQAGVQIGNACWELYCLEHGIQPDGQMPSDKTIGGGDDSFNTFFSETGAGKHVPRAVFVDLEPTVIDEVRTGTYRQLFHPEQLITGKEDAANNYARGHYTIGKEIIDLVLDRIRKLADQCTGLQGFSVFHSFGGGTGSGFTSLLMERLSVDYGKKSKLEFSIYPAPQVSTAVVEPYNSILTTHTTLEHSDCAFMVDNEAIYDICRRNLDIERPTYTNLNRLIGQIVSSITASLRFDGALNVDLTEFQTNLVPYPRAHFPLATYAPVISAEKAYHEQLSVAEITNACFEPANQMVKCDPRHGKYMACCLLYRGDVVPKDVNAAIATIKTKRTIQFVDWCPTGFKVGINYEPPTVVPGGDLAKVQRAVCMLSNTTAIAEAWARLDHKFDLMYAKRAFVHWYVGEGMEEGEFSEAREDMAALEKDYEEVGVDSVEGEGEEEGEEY

In the case of `COC(=O)Nc1nc2cc(C(=O)c3ccc(F)cc3)ccc2[nH]1` [flubendazole], the “antifungal effect, orally administered pure compound” value ([1]; mice, oral, water, polysorbate 80/PBS, DMSO, PEG400 or cyclodextrin vehicles, data not shown) is reported as “no demonstrable antifungal effect”, the “flubendazole concentrations in plasma and cerebrum” value ([1]; mouse, in vivo) is reported as “quantifiable in plasma and the cerebrum” and the logD [2] is reported as 2.9. For the same molecule, the liver toxicity [3] was “liver toxicity was also observed”, the toxicity findings [3] was “evidence of toxicity related to the pharmacological activity of flubendazole in the gastrointestinal tract, lymphoid system, and bone marrow, as well as testicular toxicity” and the “absorption after oral dosing” value [4] was “rapidly absorbed”. For the same molecule, the “Ka, mean” value ([4]; po) was 11.312 h⁻¹, the “Ka, median” value ([4]; po) was 14.895 h⁻¹ and the “Kbc, mean” value ([4]; po) was 0.056 h⁻¹. The “Kbc, median” value ([4]; po) was 0.056 h⁻¹, the “Kcb, mean” value ([4]; po) was 3.446 h⁻¹ and the “Kcb, median” value ([4]; po) was 0.594 h⁻¹. For the same molecule, the “Kcp, mean” value ([4]; po) was 15.741 h⁻¹, the “Kcp, median” value ([4]; po) was 15.404 h⁻¹ and the “Kpc, mean” value ([4]; po) was 16.997 h⁻¹. The “Kpc, median” value ([4]; po) was 16.915 h⁻¹, the “SCL/F (apparent clearance), mean” value ([4]; po) was 0.039 L/h and the “SCL/F (apparent clearance), median” value ([4]; po) was 0.026 L/h. For the same molecule, the “Vb/F (apparent volume of brain), mean” value ([4]; po) was 0.277 L, the “Vb/F (apparent volume of brain), median” value ([4]; po) was 0.146 L and the “Vc/F (apparent volume of central compartment), mean” value ([4]; po) was 0.051 L. For the same molecule, the “Vc/F (apparent volume of central compartment), median” value ([4]; po) was 0.069 L, the “cerebrum concentrations relative to plasma” value ([4]; po) was “consistently higher than those observed in plasma” and the “ratio of AUC for serum and AUC for cerebrum” value ([4]; po) was 1:4.44. The solubility [5] was 0.8 µM (≈ 0.251 µg/mL), the “No. of isolates with MIC (mg/liter) of: 0.03” value [6] was 2 and the “No. of isolates with MIC (mg/liter) of: 0.06” value [6] was 40. For the same molecule, the “No. of isolates with MIC (mg/liter) of: 0.125” value [6] was 8, the “No. of isolates with MIC (mg/liter) of: 0.25” value [6] was 0 and the “No. of isolates with MIC (mg/liter) of: 0.5” value [6] was 0. For the same molecule, the MIC ([7]; EUCAST methodology, read-out: modal MIC) was 0.125 µg/mL (≈ 0.399 µM), the MIC ([7]; range over isolates, Table 1, comparable with EUCAST and CLSI, read-out: MICs) was 0.06 to 0.25 µg/mL (≈ 0.192 to 0.798 µM) and the “No. of isolates with MIC (mg/liter) of: 0.03” value ([7]; EUCAST, 50 strains) was 1. The “No. of isolates with MIC (mg/liter) of: 0.06” value ([7]; EUCAST, 50 strains) was 19, the “No. of isolates with MIC (mg/liter) of: 0.125” value ([7]; EUCAST, 50 strains) was 25 and the “No. of isolates with MIC (mg/liter) of: 0.25” value ([7]; EUCAST, 50 strains) was 5. The “No. of isolates with MIC (mg/liter) of: 0.5” value ([7]; EUCAST, 50 strains) was 0, the toxicity findings [8] was “evidence of toxicity related to the pharmacological activity of flubendazole in the gastrointestinal tract, lymphoid system, and bone marrow, as well as testicular toxicity” and the “antifungal activity in hollow-fiber model” value [9] was “Rapid fungicidal activity”. The “reduction in fungal burden compared with vehicle-treated controls” value ([10]; 12 mg/kg of body weight/day orally (abstract)) was about 2 log10CFU/g, the “effect on fungal growth in the brain” value ([10]; 12 mg/kg/day orally) was “slowed but did not prevent fungal growth in the brain” and the C50g (concentration inducing half-maximal effects on growth), mean ([10]; PK-PD model) was 2.04 mg/L. For the same molecule, the C50g (concentration inducing half-maximal effects on growth), median ([10]; PK-PD model) was 1.68 mg/L, the “Hg (slope function for effect on growth), mean” value ([10]; PK-PD model) was 10.338 and the “Hg (slope function for effect on growth), median” value ([10]; PK-PD model) was 5.096. For the same molecule, the “antifungal effect of 6 mg/kg q12h compared with 12 mg/kg/day” value ([10]; oral, single experiment, data not shown) was “no difference in antifungal effect”, the hepatocyte CLint [11] was 39 µL/min/1e6 cells and the antifungal effect ([12]; 6 mg/kg/day orally) was “no demonstrable antifungal effect”. For the same molecule, the antifungal effect ([12]; 22.5 mg/kg q24h orally, few animals) was “the effect was small”, the “fungal burden in the cerebrum at the end of the experiment vs other groups” value ([12]; 6 and 22.5 mg/kg q24h, 288 h postinoculation, P = 0.464) was “no difference in the fungal burden” and the aneugenicity [13] was “aneugenic”. For the same molecule, the clastogenicity [13] was “clastogenic”, the embryotoxicity [13] was “embryotoxic” and the IC50 [14] was 2.38 µM. The oral bioavailability [15] was “orally bioavailable”, the “drug concentrations in CSF or cerebrum” value ([15]; oral 6 or 22.5 mg/kg q24h, at time of sacrifice, limit of quantitation 0.0005 mg/liter) was “no quantifiable drug concentrations” and the “activity in filarial disease models” value [16] was “striking activity”. For the same molecule, the microsomal CLint [17] was 44 µL/min/mg and the fraction unbound [18] was 0.094.

For `CC(=O)O[C@H]1C(=O)[C@@]2(C)[C@H]([C@H](OC(=O)c3ccccc3)[C@]3(O)C[C@H](OC(=O)[C@H](O)[C@@H](NC(=O)c4ccccc4)c4ccccc4)C(C)=C1C3(C)C)[C@]1(OC(C)=O)CO[C@@H]1C[C@@H]2O` [paclitaxel], the IC50 [19] is listed as 3.9 µM.

For `CC[C@]1(O)C[C@@H]2CN(CCc3c([nH]c4ccccc34)[C@@](C(=O)OC)(c3cc4c(cc3OC)N(C)[C@H]3[C@@](O)(C(=O)OC)[C@H](OC(C)=O)[C@]5(CC)C=CCN6CC[C@]43[C@@H]65)C2)C1` [vinblastine], the IC50 [19] is given as 5.3 µM.
